Assay results taken from patent US20220411378A1, “SMALL MOLECULES POLYMERASE INHIBITORS” (GEORGIA STATE UNIVERSITY RESEARCH FOUNDATION, INC., priority 2019, published 2022).
Entries after “also recorded” stand apart in the source; their conditions may differ. Like-named read-outs stand apart in the source and are kept apart here.

Legend:
recHPIV3-JS-NanoLuc = assay: microbe, parasite or virus in culture; type: cell-based
[1] = system: different immortalized cell lines; assay: Cell proliferation / cytotoxicity in cultured immortalized cell lines; type: cell-based
HPIV1 = type: cell-based
SeV [2] = type: cell-based
MeV = type: cell-based
[3] = system: canine distemper virus (CDV); type: cell-based
HPIV2 = type: cell-based
RSV = type: cell-based
influenza A viruses = type: cell-based
[4] = system: clinical isolates of HPIV3; type: cell-based
[5] = system: clinical isolates HPIV3-9R4 and HPIV3-10L3; assay: microbe, parasite or virus in culture; type: cell-based
MeV-Edm RdRP = MeV-Edm RdRP (Measles virus, UniProt P12576); type: cell-based
HPIV3-JS RdRP = type: cell-based
CDV-Onderstepoort RdRP = CDV-Onderstepoort RdRP (Canine distemper virus, UniProt P24658); type: cell-based
RSV-derived minigenome = RSV-derived minigenome (Human respiratory syncytial virus A, UniProt P28887); type: cell-based
NiV L = NiV L (Nipah virus, UniProt Q997F0); assay: cell-based
purified MeV L (L1708) = purified MeV L (L1708) (Measles virus, UniProt Q9WMB3); assay: biochemical; type: binding
[6] = system: MeV L with resistance mutations (LS869P, LI1009F, LY1106S, LS869P/Y942H); type: binding
[7] = molecular target: purified MeV P-L proteins (Measles virus, UniProt Q9WMB3); type: biochemical
[8] = system: HPIV3 primary transcription; type: cell-based
[9] = system: MeV primary transcription; type: cell-based
HPIV3 = assay: microbe, parasite or virus in culture; type: cell-based
HPIV1 isolate 5F6 = assay: organism not typed; type: cell-based
in vitro [10] = type: in vitro ADME; settings: plasma
Experimental: (§1) To determine stability in plasma, GHP-88309 was incubated in triplicate in pooled human or CD-1 mouse plasma (BioIVT) in glass tubes in a 37° C. shaker-incubator (150 rpm). Procaine and benfluorex served as positive controls and were analyzed in parallel. […] To determine stability in liver microsomes, GHP-88309 was incubated in triplicate in glass tubes in 50 mM Tris-HCl (pH 7.5) buffer with 8 mM MgCl2, 25 μg/mL alamethicin, Phase I and Phase II cofactors (NADPH regenerating system (NRS) and 2 mM UDPGA, respectively) and 0.5 mg total protein pooled mixed gender human liver microsomes (BioIVT) or pooled CD-1 mouse liver microsomes (Xenotech) in a 37° C. shaker incubator (150 rpm). Verapamil served as Phase I positive control, negative controls lacked cofactors and contained 2% (w/v) NaHCO3 in water instead of NRS. Aliquots were taken after 0, 15, […], 30, 60 and 120 minutes and processed as outlined above.

[11] = Stability in human liver microsomes; type: in vitro ADME
Experimental: as §1

[12] = Stability in mouse liver microsomes; type: in vitro ADME
Experimental: as §1

[13] = Pharmacokinetics analysis in mice; type: in vivo
SeV [14] = system: SeV; design: species or system mice; settings: mouse, in vivo
HPIV3-infected HBTECs = type: cell-based, human
in vitro [15] = settings: African green monkey
in vitro [16] = settings: human

With NC(=O)c1c(F)cccc1-c1cccc2cnccc12 [GHP-88309, 2-fluoro-6-(5-isoquinolyl)benzamide] the EC50 (recHPIV3-JS-NanoLuc) was 0.59 to 1.16 µM, the EC50 (recHPIV3-JS-NanoLuc; Human respirovirus 3) was under 1 µM and the EC50 (recHPIV3-JS-NanoLuc; Human respirovirus 3, read-out: active concentrations against recHPIV3-JS-NanoLuc) was 0.4 to 0.78 µM. For the same compound, the “effect on cell proliferation” value ([1]; concentration range up to 100 μM) was “No toxicity was detectable”, the cytotoxicity ([1]; multi-day incubation, up to 1 mM, infected cells highest 300 μM) was “no cytotoxicity” and the inhibitory activity (HPIV1) was “Inhibitory activity”. The “potency (EC50) against clinical isolates” value (HPIV1) was “low-micromolar to submicromolar”, the inhibitory activity (SeV [2]) was “Inhibitory activity” and the inhibitory activity (MeV) was “Inhibitory activity”. For the same compound, the “potency (EC50) against clinical isolates” value (MeV) was “low-micromolar to submicromolar”, the inhibitory activity [3] was “Inhibitory activity” and the inhibitory activity (HPIV2) was “not inhibited”. For the same compound, the inhibitory activity (RSV) was “not inhibited”, the inhibitory activity (influenza A viruses) was “not inhibited” and the “potency (EC50) against clinical isolates” value [4] was “low-micromolar to submicromolar”. For the same compound, the EC50 ([5]; Human respirovirus 3, HPIV3-9R4 on HBTEC cultures) was 0.07 µM, the EC50 ([5]; Human respirovirus 3, HPIV3-10L3 on HBTEC cultures) was 0.08 µM and the “inhibition of viral RdRP activity” value (MeV-Edm RdRP) was “specific inhibition”. The “inhibition of viral RdRP activity” value (HPIV3-JS RdRP) was “specific inhibition”, the “inhibition of viral RdRP activity” value (CDV-Onderstepoort RdRP) was “specific inhibition” and the “inhibition of viral RdRP activity” value (RSV-derived minigenome) was “not affected”. For the same compound, the EC50 (NiV L) was 314 µM, the Kd (purified MeV L (L1708)) was 6.2 µM and the “difference between EC50 and KD concentrations” value (purified MeV L (L1708)) was about 10 fold. The binding [6] was “drastically reduced”, the “RNA elongation (3′ extension) after back-priming” value [7] was “does not block; also recorded: did not block RNA elongation” and the “de novo RNA synthesis (initiation at the promoter)” value [7] was “inhibits; also recorded: dose-dependent inhibition”. For the same compound, the “viral mRNA amounts during primary transcription” value [8] was “dose-dependent reduction”, the “viral mRNA amounts during primary transcription” value [9] was “dose-dependent reduction” and the EC50 (HPIV3) was 0.105 µM. For the same compound, the “sterilizing concentration in the basolateral chamber” value (HPIV3) was 10 µM, the EC50 (HPIV3; Human respirovirus 3) was 0.09 µM and the EC50 (HPIV1 isolate 5F6) was 0.28 µM. The half-life (in vitro [10]; CD-1, mouse) was over 15 h, the half-life (in vitro [10]; human) was over 15 h and the half-life ([11]; both sexes, human, pooled human liver microsomes, pH 7.5, human liver microsomes, read-out: half-life (t1/2)) was over 15 h. The “half-life (t1/2)” value ([11]; human liver microsomes) was 15.3 h, the half-life ([12]; CD-1, mouse, pooled CD-1 mouse liver microsomes, pH 7.5, mouse liver microsomes, read-out: half-life (t1/2)) was over 15 h and the “half-life (t1/2)” value ([12]; mouse liver microsomes) was over 24 h. For the same compound, the “effect of multi-day dosing on PK properties” value ([13]; 150 mg/kg oral, single vs multi dosing) was “did not significantly (P>0.82) alter”, the tolerability ([13]; 5-day multi-dose oral, b.i.d. 150 mg/kg) was “well tolerated; also recorded: no signs of biotoxicity” and the organ concentrations ([13]; all soft tissues incl. lung, 60 minutes after plasma Cmax, single oral 150 mg/kg) was 70 to 246 nmol/g. The concentration at 11.5 h ([13]; female, 129x1/SvJ, mouse, plasma, 150 mg/kg oral b.i.d., 4-day treatment period, read-out: drug plasma concentration at trough) was about 34 µM, the bioavailability ([13]; female, 129x1/SvJ, mouse, plasma, single-dose oral vs i.v.) was about 90% and the “sustained drug plasma concentrations” value ([13]; single oral dose 150 mg/kg) was over 30 µM. For the same compound, the “IFN-β induction in lung tissue” value (SeV [14]) was “significantly lower”, the “IL12b expression in lung tissue” value (SeV [14]) was “increased” and the body temperature (SeV [14]) was “prevented hypothermia”. For the same compound, the body weight (SeV [14]) was “alleviated body weight losses”, the clinical signs (SeV [14]) was “significantly alleviated” and the “expression of inflammatory markers (IL-6, TNF, Acod1)” value (SeV [14]) was “significantly decreased”. The “humoral anti-SeV response of recoverees” value (SeV [14]) was “robust humoral anti-SeV response”, the lung histopathology (SeV [14]) was “no statistically significant (P=0.62) pathological changes” and the “lung inflammation and cellular infiltrates” value (SeV [14]) was “alleviated”. For the same compound, the outcome of rechallenge (SeV [14]) was “complete survival without development of clinical signs”, the survival (SeV [14]) was “All treated animals survived; also recorded: complete protection” and the “survival after primary infection” value (SeV [14]) was “all animals survived”. For the same compound, the “virus load in lungs” value (SeV [14]) was “significantly reduced”, the “virus load in trachea” value (SeV [14]) was “significantly reduced” and the IFN-β levels (HPIV3-infected HBTECs) was “did not reduce”. The ISG expression (HPIV3-infected HBTECs) was “enhanced”, the “TEER and tight junction organization” value (3D-ALI-HBTEC) was “unchanged” and the CC50 (in vitro [15]) was over 20 µM. The CC50 (in vitro [16]) was 1000 µM.
